The results in this text go back to ChEMBL document CHEMBL1148535, “Hexylitaconic acid: a new inhibitor of p53-HDM2 interaction isolated from a marine-derived fungus, Arthrinium sp” (Bioorg Med Chem Lett, 2006).

The structures appear in SMILES notation. Activity calls are given as the source filed them. No cut-off for these calls is given here.

The term IC50 denotes the concentration at which inhibition is half-maximal. A high value points to weaker potency in that assay.

For one assay, the target named is T1, E3 ubiquitin-protein ligase Mdm2 (Homo sapiens, UniProt Q00987). The experiment in a line: Inhibition of p53-HDM2 interaction at 50 ug/ml.
Target sequence in this assay (Q00987 whole entry, looked up): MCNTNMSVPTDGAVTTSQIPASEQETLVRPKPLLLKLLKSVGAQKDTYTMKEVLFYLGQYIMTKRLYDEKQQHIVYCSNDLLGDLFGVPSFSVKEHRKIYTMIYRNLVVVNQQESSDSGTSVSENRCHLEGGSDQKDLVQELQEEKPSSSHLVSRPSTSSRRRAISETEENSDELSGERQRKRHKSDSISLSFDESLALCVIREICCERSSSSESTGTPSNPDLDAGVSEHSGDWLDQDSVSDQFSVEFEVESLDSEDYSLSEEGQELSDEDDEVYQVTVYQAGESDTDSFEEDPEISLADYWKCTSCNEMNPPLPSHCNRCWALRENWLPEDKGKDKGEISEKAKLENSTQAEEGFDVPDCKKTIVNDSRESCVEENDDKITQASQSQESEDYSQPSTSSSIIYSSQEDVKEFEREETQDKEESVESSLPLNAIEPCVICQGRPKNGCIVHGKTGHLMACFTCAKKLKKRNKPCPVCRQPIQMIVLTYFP
Consider `C=C(CC(=O)O)C(=O)O`, for which the result was inactive.

Take `O=C(O)CCC(=O)O`: the outcome was inactive.

As to `CCCCCCC(C(=O)OC)C(C)C(=O)O` (stereo unspecified), the result was inactive. As to `C=C(C(=O)O)C(CCCCCC)C(=O)OC` (stereo unspecified), the result was inactive. Same read-out and setting: under `CCCCCCC(C(=O)O)C(C)C(=O)O` (stereo unspecified) stands “inactive”.

For another assay, the target named is T1, E3 ubiquitin-protein ligase Mdm2. The experiment in a line: Inhibition of p53-HDM2 interaction.
Target sequence in this assay (Q00987 whole entry): as the sequence (Q00987 whole entry, looked up) above
The molecule `C=C(C(=O)O)C(CCCCCC)C(=O)O` (stereo unspecified) [HEXYLITACONIC ACID] showed an IC50 of 233 µM.
